The values that follow come from PMC5005338, “Escherichia coli Type III Secretion System 2 ATPase EivC Is Involved in the Motility and Virulence of Avian Pathogenic Escherichia coli” (Frontiers in Microbiology, 2016).

The test has as its target EivC (His-EivC) (Escherichia coli, UniProt A0A160EFI3). The note with it: 30 min assay; His-tagged protein.

Chain of EivC (His-EivC) (A0A160EFI3 entry or part of it): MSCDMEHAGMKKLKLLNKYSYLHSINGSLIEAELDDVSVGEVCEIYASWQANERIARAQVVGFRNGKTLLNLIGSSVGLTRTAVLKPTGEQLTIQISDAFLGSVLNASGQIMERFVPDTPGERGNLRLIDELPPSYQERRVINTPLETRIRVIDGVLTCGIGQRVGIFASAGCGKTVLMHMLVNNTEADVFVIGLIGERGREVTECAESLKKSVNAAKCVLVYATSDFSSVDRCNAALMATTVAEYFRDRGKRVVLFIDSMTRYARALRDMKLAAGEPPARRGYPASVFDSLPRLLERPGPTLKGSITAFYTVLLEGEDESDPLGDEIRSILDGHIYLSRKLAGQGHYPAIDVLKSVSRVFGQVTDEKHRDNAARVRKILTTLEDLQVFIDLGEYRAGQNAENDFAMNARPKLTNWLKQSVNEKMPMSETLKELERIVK

Regarding `Nc1ncnc2c1ncn2[C@@H]1O[C@H](COP(=O)(O)OP(=O)(O)OP(=O)(O)O)[C@@H](O)[C@H]1O` [ATP], the “phosphate release, malachite green ATPase assay kit” value was “a His-EivC fusion protein was purified and tested for its ability to hydrolyze ATP”.
